Test results: patent US8680094B2, “1, 4-benzoxazine compounds and derivatives thereof as therapeutic drugs for the treatment of neurodegenerative conditions” (Board of Regents, The University of Texas System, priority 2008, dated 2014)

System: 3-NP-induced mouse model of Huntington's disease
Test: 3-nitropropionic acid (3-NP)-induced mouse model of Huntington's disease
Format: in vivo
Procedure: 3-Nitropropionic acid administration and behavioral evaluation was done on 8-week old C57BL/6 male mice (Charles River Laboratories, Inc, Wilmington, Mass.) administered with 3-NP in ten intraperitoneal injections (50 mg/kg twice a day for 5 days) with or without HSB-13 (2 mg/kg). Injections of HSB-13 were performed 30 min before 3-NP administration. Control animals received saline injections. On the day following the 5 days of injection, locomotor activity was assessed using The TRU-SCAN® activity monitoring system (Coulborn Instruments, PA) as previously described (Chin et al., 2004; Chen et al., 2008b). The following behavioral parameters were selected: (1) Total movements time, (2) Total movement distance: the sum of all vectored X-Y coordinate changes in the floor plane, (3)Average distance per movement, (4) Mean velocity: the mean velocity of all X-T coordinate change defined movements. Following behavioral evaluation, the mice were deeply anesthetized and brains removed. The brains were fixed in 4% paraformaldehyde in 0.1 M phosphate buffer and cryoprotected in 20% sucrose in 0.1 M phosphate buffer. Coronal sections were cut on a cryostat at 40 microns and stained with cresyl violet (Sigma-Aldrich) as previously described (Chin et al., 2004; Chen et al., 2008b).
3-Nitropropionic acid administration and behavioral evaluation. 8-week old C57BL/6 male mice (Charles River Laboratories, Inc, Wilmington, Mass.) were administered with 3-NP in ten intraperitoneal injections (50 mg/kg twice a day for 5 days) with or without HSB-13 […]). Injections of HSB-13 were performed ˜30 min before 3-NP administration. Control animals received saline injections. On the day following the 5 days of injection, locomotor activity was assessed using THE TRU-SCAN® activity monitoring system (Coulborn Instruments, PA) as previously described (Chin et al. 2004). The following behavioral parameters were selected: (i) Total movements episodes: each movement in the floor plane is a series of coordinate changes with no rest for at least 1 sample interval, (2) Total movement distance: the sum of all vectored X-Y coordinate changes in the floor plane, and (3) Mean velocity: the mean velocity of all X-T coordinate change defined movements. Following behavioral evaluation, the mice were deeply anesthetized and brains removed. The brains were fixed in 4% paraformaldehyde in 0.1 M phosphate buffer and cryoprotected in 20% sucrose in 0.1 M phosphate buffer. Coronal sections were cut on a cryostat at 50 microns and stained with cresyl violet (Sigma).

Nc1ccc2c(c1)NC(=O)/C(=C/c1cc(Br)c(O)c(Br)c1)O2 [HSB-13, (Z)-6-amino-2-(3,′5′-dibromo-4′-hydrozybenzylidene)-2H-benzo[b][1,4]oxazin-3(4H)-one]
3-NP-induced striatal degeneration (cresyl violet histology) (HSB-13 2 mg/kg body weight, 30 min before each 3-NP injection (50 mg/kg i.p. twice a day, 5 days), FIG. 7A): substantially reduced | locomotor performance: total movement time, total movement distance, average distance per movement, mean velocity (HSB-13 2 mg/kg, versus 3-NP alone, 15 min period, FIG. 7B): markedly higher | 3-NP-induced striatal degeneration (cresyl violet histology) (HSB-13 2.5 mg/kg body weight, FIG. 10A): substantially reduced | locomotor performance: total movement episodes, total movement distance, mean velocity (HSB-13 2.5 mg/kg, versus 3-NP alone, FIG. 10B): markedly higher
